“And” between values parts separate entries of the source, which are not always exact repeats. Identical values can stand only once.
Columns and labels:
[1] = tested on: TGFB1 mRNA expression; assay: TGFB1 mRNA expression in NHDFs by qRT-PCR; format: cell-based, human; details: 2 μM in the presence of TGF-β1 (5 μg/L), 48 h
Procedure: (§1) A former established cell culture model was utilized to investigate the effect of putative XT-I inhibitors on NHDFs. The inhibition studies were carried out with final inhibitor concentrations of 0.5, 1.0, 2.0 or 4.0 μM diluted in fully supplemented DMEM. In brief, unless otherwise stated, NHDFs were cultivated with a low density of 50 cells per mm^2 on a hard tissue culture substrate (100 × 20 mm dish) in fully supplemented DMEM with or without additional TGF-β1 (5 μg/L) for 24 h, promoting their transdifferentiation into proto-myofibroblasts. Thereafter, cells were treated with celastrol or amphotericin B in the presence or absence of TGF-β1 (5 μg/L) for an additional 48 h. Negative controls treated with solvent only were included for every sampling time. The final DMSO content of 0.04% (v/v) was kept constant in all inhibition experiments.
(§2) The RNA extraction from cell lysates and cDNA synthesis for mRNA and miRNA expression analysis were performed as described previously.
(§3) Quantitative real-time polymerase chain reaction (qRT-PCR) analysis using a LightCycler 480 Instrument II system (Roche, Basel, Swiss) was performed as previously described. […] The geometric mean of the expression levels of the housekeeping genes SDHA, RPL13A and B2M were calculated for expression normalization. The relative target gene mRNA expressions were determined by the ΔΔCT method considering the PCR efficiency. […]

[2] = tested on: SMAD7 mRNA expression; assay: SMAD7 mRNA expression in NHDFs by qRT-PCR; format: cell-based, human; details: 2 μM in the presence of TGF-β1 (5 μg/L), 48 h
Procedure: as §1, with “experiments. […]” for “experiments.”
as §3

[3] = tested on: fibroblasts; details: in vitro, osteoblasts and fibroblasts; cited from earlier work
[4] = tested on: COL1A1 mRNA expression; assay: COL1A1 mRNA expression in NHDFs by qRT-PCR; format: cell-based, human; details: 48 h
Procedure: as §1, §2, §3

Structure (SMILES): C[C@@H]1[C@H](O)[C@@H](C)/C=C/C=C/C=C/C=C/C=C/C=C/C=C/[C@H](O[C@@H]2O[C@H](C)[C@@H](O)[C@H](N)[C@@H]2O)C[C@@H]2O[C@](O)(C[C@@H](O)C[C@@H](O)[C@H](O)CC[C@@H](O)C[C@@H](O)CC(=O)O[C@H]1C)C[C@H](O)[C@H]2C(=O)O [Compound 17, Amphotericin B]
- TGFB1 mRNA expression relative to TGF-β1 only [1]: 0.8 ± 0.04 fold
- SMAD7 mRNA expression relative to TGF-β1 only [2]: 1.3 ± 0.1 fold
- concentration causing sublethal cytotoxicity [3]: 5000 ng/mL and 10000 ng/mL
- concentration lethal to fibroblasts [3]: 100000 ng/mL
- TGF-β1-mediated COL1A1 mRNA expression relative to TGF-β1 only ([4]; 2.0 μM with TGF-β1 (5 μg/L)): 0.8 ± 0.06 fold
- COL1A1 mRNA expression compared to controls treated with DMSO ([4]; amphotericin B treatment, not statistically significant (p = 0.2)): 0.7 ± 0.1 fold
